Drawing on the NIST ThermoML archive (doi:10.1021/je800945e), this text covers Normal melting temperature for one molecule.

Numbers after ± are expanded uncertainties.

The conditions of this data set: Crystal; visual observation.

As to `Nc1cccnc1` [β-aminopyridine], the Normal melting temperature was determined as 64.50 ± 0.5 °C.
